{"source": "patent US20230312561A1", "about": "“SOLID FORMS OF (Z)-METHYL 3-(((4-(N-METHYL-2-(4-METHYLPIPERAZIN-1-YL)ACETAMIDO)PHENYL)AMINO)(PHENYL)METHYLENE)-2-OXO-2,3-DIHYDRO-1H-PYRROLO[2,3-B]PYRIDINE-6-CARBOXYLATE AND SALTS THEREOF” (Angion Biomedica Corp., priority 2020, published 2023)", "experiment": "Organic solubility (thermodynamic, 25° C., heating cycle to 75° C.)", "type": "physicochemical", "conditions": "for Solubility at 25° C.: 20 volumes; for XRPD after heat/cool cycle: cycle up to 75° C.", "procedure": "Compound 1 Hydrochloride Form A (Type 1 Lot) (ca. 50 mg) was equilibrated in a range of organic solvents in order to collect thermodynamic values for solubility. Solvents were charged in 500 μL aliquots (ca. 10 volumes) to the Compound 1 Hydrochloride Form A (Type 1 Lot) dispensed as a powder (ca. 50 mg) in 16 mm diameter glass reaction tubes until dissolution was achieved or up to 1000 μL (ca. 20 volumes) total volume was charged, with observations noted during dosing. The samples were equilibrated at 25° C. for a minimum of 24 hours with stirrer bead agitation.\nSamples which remained as suspensions and contained enough solids were split into two equal portions, with one portion isolated by filtration and the resulting damp solids profiled by XRPD. These solids were then dried in vacuo at 45° C. for ca. 16 hours before further profiling. The filtrates from the solvent suspensions were isolated, diluted by 1 in 50 using acetonitrile/water (1:1), and the Compound 1 content determined by HPLC against a single point standard.\nThe remaining portion of each suspension was subjected to a heating cycle up to 75° C. with equilibration at 10° C. temperature intervals for a minimum of 30 minutes, before allowing to cool naturally to 40° C., followed by equilibration for ca. 16 hours before continuing to cool naturally (approximately 10° C./hr) to 25° C."}
{"smiles": "COC(=O)c1ccc2c(c1)NC(=O)/C2=C(\\Nc1ccc(N(C)C(=O)CN2CCN(C)CC2)cc1)c1ccccc1.Cl", "note": "[Compound 1 Hydrochloride Form A (Type 1 Lot)]", "values": [{"measurement": "Observation after heat/cool cycle", "result": "Suspension"}, {"measurement": "XRPD after equilibration at 25° C.", "setting": "2-Butanone", "result": "Form C"}, {"measurement": "Solubility at 25° C.", "setting": "2-Butanone", "result": 4.9, "unit": "µg/mL"}, {"measurement": "XRPD after heat/cool cycle", "setting": "2-Butanone", "result": "Form C"}, {"measurement": "XRPD after equilibration at 25° C.", "setting": "2-Propanol", "result": "Form C"}, {"measurement": "Solubility at 25° C.", "setting": "2-Propanol", "result": 60, "unit": "µg/mL"}, {"measurement": "XRPD after heat/cool cycle", "setting": "2-Propanol", "result": "Form C"}, {"measurement": "XRPD after equilibration at 25° C.", "setting": "Acetone", "result": "Form C"}, {"measurement": "Solubility at 25° C.", "setting": "Acetone", "result": 14.4, "unit": "µg/mL"}, {"measurement": "XRPD after heat/cool cycle", "setting": "Acetone", "result": "Form C"}, {"measurement": "XRPD after equilibration at 25° C.", "setting": "Acetonitrile", "result": "Form C"}, {"measurement": "Solubility at 25° C.", "setting": "Acetonitrile", "result": 170, "unit": "µg/mL"}, {"measurement": "XRPD after heat/cool cycle", "setting": "Acetonitrile", "result": "Form C"}, {"measurement": "Solubility at 25° C.", "setting": "Anisole", "result": 8.1, "unit": "µg/mL"}, {"measurement": "XRPD after heat/cool cycle", "setting": "Anisole", "result": "Unassigned form"}, {"measurement": "XRPD after equilibration at 25° C.", "setting": "DMSO", "result": "Form A"}, {"measurement": "Solubility at 25° C.", "setting": "DMSO", "result": 10820, "unit": "µg/mL"}, {"measurement": "XRPD after heat/cool cycle", "setting": "DMSO", "result": "Form A"}, {"measurement": "Solubility at 25° C.", "setting": "Dichloromethane", "result": 1750, "unit": "µg/mL"}, {"measurement": "XRPD after heat/cool cycle", "setting": "Dichloromethane", "result": "Form C"}, {"measurement": "XRPD after equilibration at 25° C.", "setting": "Diethyl ether", "result": "Form C"}, {"measurement": "Solubility at 25° C.", "setting": "Diethyl ether", "result": 3, "unit": "µg/mL"}, {"measurement": "XRPD after heat/cool cycle", "setting": "Diethyl ether", "result": "Form C"}, {"measurement": "XRPD after equilibration at 25° C.", "setting": "Ethanol", "result": "Form C"}, {"measurement": "Solubility at 25° C.", "setting": "Ethanol", "result": 880, "unit": "µg/mL"}, {"measurement": "XRPD after heat/cool cycle", "setting": "Ethanol", "result": "Form C"}, {"measurement": "XRPD after equilibration at 25° C.", "setting": "Ethyl acetate", "result": "Form C"}, {"measurement": "Solubility at 25° C.", "setting": "Ethyl acetate", "result": 1.8, "unit": "µg/mL"}, {"measurement": "XRPD after heat/cool cycle", "setting": "Ethyl acetate", "result": "Form C"}, {"measurement": "XRPD after equilibration at 25° C.", "setting": "Heptane", "result": "Form A"}, {"measurement": "Solubility at 25° C.", "setting": "Heptane", "result": 2.2, "unit": "µg/mL"}, {"measurement": "XRPD after heat/cool cycle", "setting": "Heptane", "result": "Form A"}, {"measurement": "XRPD after equilibration at 25° C.", "setting": "Isopropyl acetate", "result": "Form C"}, {"measurement": "Solubility at 25° C.", "setting": "Isopropyl acetate", "result": 2.8, "unit": "µg/mL"}, {"measurement": "XRPD after heat/cool cycle", "setting": "Isopropyl acetate", "result": "Form C"}, {"measurement": "XRPD after equilibration at 25° C.", "setting": "MIBK", "result": "Form C"}, {"measurement": "Solubility at 25° C.", "setting": "MIBK", "result": 1.8, "unit": "µg/mL"}, {"measurement": "XRPD after heat/cool cycle", "setting": "MIBK", "result": "Form C"}, {"measurement": "XRPD after equilibration at 25° C.", "setting": "Methanol", "result": "Form B"}, {"measurement": "Solubility at 25° C.", "setting": "Methanol", "result": 4480, "unit": "µg/mL"}, {"measurement": "XRPD after equilibration at 25° C.", "setting": "TBME", "result": "Form A"}, {"measurement": "Solubility at 25° C.", "setting": "TBME", "result": 2.3, "unit": "µg/mL"}, {"measurement": "XRPD after equilibration at 25° C.", "setting": "Tetrahydrofuran", "result": "Form C"}, {"measurement": "Solubility at 25° C.", "setting": "Tetrahydrofuran", "result": 12.5, "unit": "µg/mL"}, {"measurement": "XRPD after heat/cool cycle", "setting": "Tetrahydrofuran", "result": "Form C"}, {"measurement": "XRPD after equilibration at 25° C.", "setting": "Toluene", "result": "Form A"}, {"measurement": "Solubility at 25° C.", "setting": "Toluene", "result": 0.6, "unit": "µg/mL"}, {"measurement": "dissolution in organic solvents on heating cycle", "setting": "any temperature (25° C.-75° C.), any solvent tested", "result": "Full or partial dissolution was not observed"}, {"measurement": "XRPD after equilibration at 25° C.", "setting": "n-Butyl acetate", "result": "Form C"}, {"measurement": "Solubility at 25° C.", "setting": "n-Butyl acetate", "result": 0.7, "unit": "µg/mL"}, {"measurement": "XRPD after heat/cool cycle", "setting": "n-Butyl acetate", "result": "Form C"}]}
